Assay results as given in patent US20240102994A1, “Method to Evaluate the Capability of Compounds on the Trapping of Proteins” (Eisbach Bio GmbH, priority 2020, published 2024).
Entries after “also recorded” stand apart in the source; their conditions may differ.

Tests used:
GFP-PARP2 = molecular target: T1, GFP-PARP2 (Homo sapiens, UniProt Q9UGN5); experiment: Live-cell protein trapping assay: GFP-PARP2 at laser micro-irradiation sites; assay type: cell-based; settings: U2OS cells
T1 construct: expressed in transfected cells; host or cells: U2OS
T1 sequence (Q9UGN5 whole entry): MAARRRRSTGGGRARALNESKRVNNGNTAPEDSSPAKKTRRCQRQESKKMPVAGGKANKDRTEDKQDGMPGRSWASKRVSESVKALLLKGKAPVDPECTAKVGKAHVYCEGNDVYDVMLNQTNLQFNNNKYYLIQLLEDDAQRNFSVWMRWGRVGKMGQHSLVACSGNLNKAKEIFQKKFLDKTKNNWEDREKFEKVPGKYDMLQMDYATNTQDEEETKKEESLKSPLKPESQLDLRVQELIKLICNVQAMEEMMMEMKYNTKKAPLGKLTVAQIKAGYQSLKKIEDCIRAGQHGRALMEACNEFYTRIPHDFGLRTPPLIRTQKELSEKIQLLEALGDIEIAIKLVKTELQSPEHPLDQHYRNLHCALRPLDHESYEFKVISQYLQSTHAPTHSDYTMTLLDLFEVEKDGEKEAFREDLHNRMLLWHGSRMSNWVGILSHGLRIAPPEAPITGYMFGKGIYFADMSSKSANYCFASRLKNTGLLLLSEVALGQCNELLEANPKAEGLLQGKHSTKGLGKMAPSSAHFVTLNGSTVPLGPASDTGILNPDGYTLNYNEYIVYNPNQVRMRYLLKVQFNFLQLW
Excerpt: The disclosed method is used to analyze protein trapping induced by compounds. Live-cell imaging allows monitoring of the accumulation of at least one protein, e.g. which is detectably labelled, e.g. fluorophore-tagged, at the induced DNA lesions over time. Time0 (t0) hereby describes the timepoint before induction of DNA damage by irradiation. Thus, the relative enrichment of the at least one protein at DNA lesions within the imaged time frame (from t0 to tEND) can be quantified. This allows to the analysis of the recruitment and retention (protein trapping) kinetics of the at least one protein, e.g. which is detectably labelled, e.g. fluorophore-tagged, at DNA lesions. Suitably, as a first step the accumulation and/or residence time of a protein, e.g. which is detectably labelled, e.g. fluorophore-tagged, is measured in the absence of a test compound (control). The optimal imaging time is hereby determined by the time in which the majority of the protein has released from the damage site, indicated by the decrease of signal, e.g. fluorescent signal, at the DNA lesion (see FIG. 2A). Subsequently, the accumulation and/or residence time of the protein, e.g. which is detectably labelled, e.g. fluorophore-tagged, may be determined in the presence of at least one test compound. […] Using this method, we examined the trapping of GFP-tagged ALC1 in the presence of ALCi-1 compared to a DMSO control.
Eukaryotic cells were seeded onto 4/8-well Nunc Lab-Tek chambers (Thermo Fisher Scientific) in the corresponding cell culture medium, cultured over night at 37° C. and transfected with fluorophore-tagged protein plasmids using XtremeGENE HP DNA transfection reagent (Sigma). […]
The drug- and control-master-mixes were prepared in Leibovitz's L-15 media (+10% FBS). […] Therefore, the optimal imaging time for the protein of interest was determined by investigation of the trapping and release under control conditions (no treatment). […] Subsequently, the fluorophore-tagged protein was measured in the presence of at least one compound. […]

PARP1-GFP = PARP1-GFP (Homo sapiens, UniProt P09874); settings: wild-type U2OS cells, 10 μM for 1 h, 355 nm laser, 30 minutes, compared to DMSO
PARP1-GFP, sequence (P09874 whole entry): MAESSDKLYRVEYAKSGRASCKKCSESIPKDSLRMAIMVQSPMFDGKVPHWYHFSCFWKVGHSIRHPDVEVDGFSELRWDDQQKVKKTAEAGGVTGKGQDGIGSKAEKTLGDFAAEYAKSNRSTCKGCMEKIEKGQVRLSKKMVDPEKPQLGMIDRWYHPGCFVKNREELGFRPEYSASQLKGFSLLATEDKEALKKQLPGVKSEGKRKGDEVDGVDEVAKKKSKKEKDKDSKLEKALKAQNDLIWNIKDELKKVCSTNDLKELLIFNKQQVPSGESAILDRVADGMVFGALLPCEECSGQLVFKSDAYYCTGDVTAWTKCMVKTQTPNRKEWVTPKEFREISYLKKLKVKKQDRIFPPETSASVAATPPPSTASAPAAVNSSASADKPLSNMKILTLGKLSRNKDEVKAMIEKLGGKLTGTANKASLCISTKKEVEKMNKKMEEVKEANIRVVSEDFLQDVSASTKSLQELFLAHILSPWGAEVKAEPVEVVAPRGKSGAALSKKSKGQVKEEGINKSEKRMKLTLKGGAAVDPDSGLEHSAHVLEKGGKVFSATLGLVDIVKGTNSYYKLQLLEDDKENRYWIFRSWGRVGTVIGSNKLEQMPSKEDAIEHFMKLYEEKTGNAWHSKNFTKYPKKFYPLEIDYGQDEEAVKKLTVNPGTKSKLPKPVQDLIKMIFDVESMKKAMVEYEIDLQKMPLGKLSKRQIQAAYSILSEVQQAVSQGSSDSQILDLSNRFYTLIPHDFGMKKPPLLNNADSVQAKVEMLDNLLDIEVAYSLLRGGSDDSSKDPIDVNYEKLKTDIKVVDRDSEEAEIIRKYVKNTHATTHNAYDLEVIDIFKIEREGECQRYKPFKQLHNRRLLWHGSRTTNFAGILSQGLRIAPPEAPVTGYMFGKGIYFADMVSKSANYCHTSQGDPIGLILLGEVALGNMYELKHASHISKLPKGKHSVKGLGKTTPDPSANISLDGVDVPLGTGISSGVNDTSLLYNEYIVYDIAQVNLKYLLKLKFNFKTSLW
Excerpt: The disclosed method is used to analyze protein trapping induced by compounds. Live-cell imaging allows monitoring of the accumulation of at least one protein, e.g. which is detectably labelled, e.g. fluorophore-tagged, at the induced DNA lesions over time. Time0 (t0) hereby describes the timepoint before induction of DNA damage by irradiation. Thus, the relative enrichment of the at least one protein at DNA lesions within the imaged time frame (from t0 to tEND) can be quantified. This allows to the analysis of the recruitment and retention (protein trapping) kinetics of the at least one protein, e.g. which is detectably labelled, e.g. fluorophore-tagged, at DNA lesions. Suitably, as a first step the accumulation and/or residence time of a protein, e.g. which is detectably labelled, e.g. fluorophore-tagged, is measured in the absence of a test compound (control). The optimal imaging time is hereby determined by the time in which the majority of the protein has released from the damage site, indicated by the decrease of signal, e.g. fluorescent signal, at the DNA lesion (see FIG. 2A). Subsequently, the accumulation and/or residence time of the protein, e.g. which is detectably labelled, e.g. fluorophore-tagged, may be determined in the presence of at least one test compound. […]

SMILES | retention of PARP2 at induced damage sites (PARP trapping) (GFP-PARP2; talazoparib 100 nM, 10% 355 nm laser, 15 minutes, vs absence of PARPi) | recruitment of PARP2 to the damage site (GFP-PARP2; veliparib 10 μM, 10% 355 nm laser, 15 minutes, vs absence of PARPi) | PARP2 trapping at DNA lesions (GFP-PARP2; veliparib, compared to DMSO-only control) | retention of PARP1 at DNA damage sites (PARP1-trapping) (PARP1-GFP)
Cn1ncnc1[C@H]1c2n[nH]c(=O)c3cc(F)cc(c23)N[C@@H]1c1ccc(F)cc1 [talazoparib] | enhanced retention of PARP2 |  |  | 
C[C@]1(c2nc3c(C(N)=O)cccc3[nH]2)CCCN1 [veliparib] |  | less recruitment of PARP2; also recorded: overall less PARP2 recruitment | only weak trapping | enhanced retention of PARP1
